Measured values published in patent publication US7304039B2, “Glucose-based compounds with affinity to P-selectin” (Astellas Pharma Europe B.V., priority 2002, dated 2007).

What follows are compounds tested against T1, human P-selectin (Homo sapiens, UniProt P16109) (assay: inhibition assay of SO3-sLea-PAA-biotin binding to immobilized P-selectin). Settings: inhibition of HSO3-Lea-PAA-biotin (0.33 μg/ml) binding to immobilized human P-selectin/IgG-Fc, 2 hours at 37° C.
T1 sequence (P16109 42-771): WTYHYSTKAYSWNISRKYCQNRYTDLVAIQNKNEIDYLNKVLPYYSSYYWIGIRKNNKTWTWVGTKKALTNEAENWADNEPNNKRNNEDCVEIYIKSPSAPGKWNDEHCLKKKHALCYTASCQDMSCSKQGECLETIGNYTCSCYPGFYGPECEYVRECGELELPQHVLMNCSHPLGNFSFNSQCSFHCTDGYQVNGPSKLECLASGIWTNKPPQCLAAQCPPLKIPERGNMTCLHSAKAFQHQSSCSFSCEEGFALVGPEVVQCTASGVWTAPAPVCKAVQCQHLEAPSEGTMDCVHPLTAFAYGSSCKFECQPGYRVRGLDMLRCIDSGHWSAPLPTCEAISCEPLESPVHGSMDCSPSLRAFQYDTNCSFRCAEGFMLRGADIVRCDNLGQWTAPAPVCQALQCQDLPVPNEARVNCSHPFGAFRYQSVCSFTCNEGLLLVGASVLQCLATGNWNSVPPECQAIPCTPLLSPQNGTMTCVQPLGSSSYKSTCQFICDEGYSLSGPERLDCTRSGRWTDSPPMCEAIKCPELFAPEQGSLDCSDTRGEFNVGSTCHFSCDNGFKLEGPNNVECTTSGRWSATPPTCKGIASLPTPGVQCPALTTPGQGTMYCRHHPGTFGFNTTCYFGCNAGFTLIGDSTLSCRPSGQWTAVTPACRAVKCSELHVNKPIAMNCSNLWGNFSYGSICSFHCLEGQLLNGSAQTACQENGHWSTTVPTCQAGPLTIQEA
Protocol: The activity of compound 3 was evaluated in an inhibition assay of SO3-sLe^a-PAA-biotin binding to immobilized P-selectin as described in the literature (G. Weitz-Schmedt et al., Anal. Biochem. 238, 184-190, 1996) and compared to that of its mannosyl analogue (reference compound 2). A 96 microtiter plate (High binding flat bottom, Costar, Corning, U.S.A.) was coated overnight at 4° C. with 10 μg/ml goat anti-human IgG in coating buffer (50 mM NaHCO3, pH 9.6). Subsequently, wells were washed with assay buffer (20 mM HEPES, 150 mM NaCl, 1 mM CaCl2, pH 7.4) and incubated for 1 hour at 37° C. with blocking buffer (3% BSA in assay buffer). After washing with assay buffer, the wells were incubated for 2 hours at 37° C. with human P-selectin/IgG-Fc (0.3 μg/ml) or CD4/IgG-Fc (as negative control). Subsequently, wells were washed three times with assay buffer and incubated for 2 hours at 37° C. in binding buffer (0.1% BSA, 0.05% Tween 20 in assay buffer) with 0.33 μg/ml HSO3-Le^a-PAA-biotin and the compound. The wells were washed six times with binding buffer and 3,3′,5,5′-tetramethylbenzine (TMB)/H2O2 was added and incubated at room temperature for 15 minutes. The reaction was halted by addition of 2M H2SO4 and the absorbance was measured at 450 nm.
The binding of compounds 6d, 6f, and 6i to P-selectin was evaluated using the same inhibition assay as described in example 2.

Row | EC50 [mM] | SMILES
1 | 2 | O=C(COP(=O)(O)O)C(O)C(O)COC1OC(CO)C(O)C(O)C1O (centres unmarked) [Compound 3]
2 | 4.5 | CCCCCCCC(=O)NC1C(OCC(O)C(O)C(=O)COP(=O)(O)O)OC(CO)C(O)C1O (centres unmarked) [Compound 6c]
3 | 0.9 | O=C(NC1C(OCC(O)C(O)C(=O)COP(=O)(O)O)OC(CO)C(O)C1O)c1ccccc1 (centres unmarked) [Compound 6f]
4 | 8.2 | O=C(COP(=O)(O)O)C(O)C(O)COC1OC(CO)C(O)C(O)C1O (centres unmarked) [Reference compound 2, reference compound]
5 | 3.7 | O=C(NC1C(OCC(O)C(O)C(=O)COP(=O)(O)O)OC(CO)C(O)C1O)OCC(Cl)(Cl)Cl (centres unmarked) [Compound 6d]
